Laboratory results as given in US11203772B2, “Chemoenzymatic synthesis of structurally homogeneous ultra-low molecular weight heparins” (The University of North Carolina at Chapel Hill, priority 2010, dated 2021).

Tests used:
bovine factor Xa = experiment: Inhibition of factor Xa activity (anti-Xa, chromogenic substrate S-2765, with AT); assay type: biochemical; details: with human AT, read-out: IC50 value, in vitro anti-Xa activity
Method: Inhibition effect of the ULMW heparin compounds on the activity of factor Xa. Assays were based on a previously published method (Zhang et al., 2001; Duncan et al., 2004). Briefly, bovine factor Xa (Sigma, St. Louis, Mo., United States of America) was diluted to 5 U/ml with PBS containing 1 mg/ml BSA. Human AT (Cutter Biological) was diluted with PBS containing 1 mg/ml BSA to give a stock solution at the concentration of 27 μM. The chromogenic substrates, S-2765 was from Diapharma and made up at 1 mM in water. The oligosaccharide (ARIXTRA® synthetic ULMW heparin pentasaccharide, ULMW heparin construct 1 and 2) was dissolved in PBS at various concentrations (0.5 to 50 nM). The reaction mixture, which included 25 μl of AT stock solution and 25 μl of the solution containing the sample, was incubated at 37° C. for 2 min. Factor Xa (25 μl) was added. After incubating 37° C. for 4 min, 25 μl of S-2765 was added. The absorbance of the reaction mixture was measured at 405 nm continuously for 10 min. The absorbance values were plotted against the reaction time. The initial reaction rates as a function of concentration were used to calculate the IC50 values.
The activity of Xa was determined by the rate of the increase of the absorbance at 405 nm. The activity without drugs was defined as 100%. […]

factor Xa [1] = experiment: Anticoagulant activity in vivo: anti-Xa activity of rabbit plasma samples; details: rabbits, subcutaneous, 120 μg/kg; compared with one another
factor Xa [2] = details: rabbit, in vivo, sc, 120 ug/kg
antithrombin (AT) = molecular target: T1, antithrombin (AT) (Homo sapiens, UniProt P01008); experiment: Binding to antithrombin (AT) by affinity coelectrophoresis; details: affinity co-electrophoresis, 35S-labeled compound
T1 construct: purchased Cutter Biological
T1 sequence (P01008 33-464): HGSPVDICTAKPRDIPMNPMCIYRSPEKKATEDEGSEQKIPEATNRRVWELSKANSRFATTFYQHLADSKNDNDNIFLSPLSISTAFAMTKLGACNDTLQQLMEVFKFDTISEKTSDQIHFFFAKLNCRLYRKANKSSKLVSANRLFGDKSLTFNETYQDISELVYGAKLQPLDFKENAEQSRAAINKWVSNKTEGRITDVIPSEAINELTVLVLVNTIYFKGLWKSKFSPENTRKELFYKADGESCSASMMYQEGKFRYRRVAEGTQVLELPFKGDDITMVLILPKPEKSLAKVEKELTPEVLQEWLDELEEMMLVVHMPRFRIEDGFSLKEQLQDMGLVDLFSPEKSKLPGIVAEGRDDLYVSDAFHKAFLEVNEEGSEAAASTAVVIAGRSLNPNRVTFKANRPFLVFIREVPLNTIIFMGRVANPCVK
Method: The dissociation constant (Kd) of each sample and AT was determined using affinity co-electrophoresis (Lee & Lander, 1991). Approximately 4000-5000 cpm of antithrombin-binding ^35S-labeled ULMW heparin construct 1 or 2 was loaded per lane with zones of AT at concentrations 0, 4, 8, 16, 32, 60, 120, 240 and 500 nM. The gel was performed at 400 mA for 2 hours, dried and analyzed on a Phospholmager Storm 860 (Amersham Biosciences, Uppsala, Sweden). The retardation coefficient was calculated at R=(M0-M)/M0, where M0 is the mobility of the polysaccharide through the zone without AT, and M is the mobility of the sample through each separation zone. The retardation coefficient was then plotted against the retardation coefficient divided by its respective concentration of AT. The slope of the line represents −1/Kd.

SMILES | IC50 (bovine factor Xa) | pharmacodynamic (PD) profiles (factor Xa [1]) | area under the curve (AUC), anti-Xa activity of plasma samples (factor Xa [2]) | Kd (antithrombin (AT))
CO[C@H]1O[C@H](COS(=O)(=O)O)[C@@H](O[C@@H]2O[C@@H](C(=O)O)[C@@H](O[C@H]3O[C@H](COS(=O)(=O)O)[C@@H](O[C@@H]4O[C@H](C(=O)O)[C@@H](O[C@H]5O[C@H](COS(=O)(=O)O)[C@@H](O)[C@H](O)[C@H]5NS(=O)(=O)O)[C@H](O)[C@H]4O)[C@H](OS(=O)(=O)O)[C@H]3NS(=O)(=O)O)[C@H](O)[C@H]2OS(=O)(=O)O)[C@H](O)[C@H]1NS(=O)(=O)O [ARIXTRA®, fondaparinux sodium, reference compound] | 3 nM | very similar | 457 | –
O=C(O)C1OC(OC2C(COS(=O)(=O)O)OC(OC3C(C(=O)O)OC(OC4C(COS(=O)(=O)O)OC(OC5C(C(=O)O)OC(OC6C(CO)OC(CO)C6O)C(O)C5O)C(NS(=O)(=O)O)C4O)C(OS(=O)(=O)O)C3O)C(NS(=O)(=O)O)C2OS(=O)(=O)O)C(O)C(O)C1OC1OC(COS(=O)(=O)O)C(O)C(O)C1NS(=O)(=O)O (stereo not shown) [construct 2] | 3.6 nM | very similar | 802 | 9.1 ± 0.2 nM
